The values that follow come from US10202373B2, “Heteroaryls and uses thereof” (MILLENNIUM PHARMACEUTICALS, INC., priority 2014, dated 2019).

As usually defined, the inhibition is the percentage by which the read-out fell short of the control. As a reminder, the IC50 is the concentration at which inhibition is half-maximal.

The target of this assay is human VPS34 (Homo sapiens (Human), UniProt Q8NEB9). The assay is described as follows: Human VPS34 enzyme assay (Adapta TR-FRET). It is filed as biochemical. The note with it: for inhibition at 1.11 µM: 1 h, inhibition of VPS34 at a 1.11 μM concentration, read-out: Percent Inhibition; for IC50: human VPS34 enzyme assay, IC50 ranges. On the procedure: VPS34 (accession number GB:BC033004) was cloned into pDEST20-Thombin as N-terminal GST tagged fusion proteins using the Gateway system (Invitrogen, catalog#11804-013). The sequences were verified before recombinant protein expression using the Baculovirus Expression System with Gateway® Technology. For expression VPS34 was infected at 1 MOI in SF9 cells and harvested 72 hours post infection. For purification, VPS34 is purified by Glutathione Sepharose 4 Fast Flow (GE Healthcare #17-5132-03) followed by HiTrap Q (GE Healthcare #17-1153-01). Human VPS34 Enzyme Assay Method 100 nL compounds in DMSO are added to wells of a 384 well microtitre plate (Greiner 780076). At room temperature: 5 ul VPS34 reaction buffer (Invitrogen Assay Buffer Q (diluted 1 in 5 with nanopure water) plus 2 mM DTT and 2 mM MnCl2) containing ATP (20 uM, Promega) and 200 uM PI-PS substrate (Invitrogen PV5122) is added followed immediately by 5 ul VPS34 reaction buffer (as above) containing VPS34 (5 nM, Millennium Protein Sciences Group) and the mixture is incubated with shaking at room temperature for 1 hour. Then 5 ul […]-detect mix (as per Invitrogen Adapta Assay kit (PV5009) instructions (contains kinase quench buffer, TR-FRET buffer, Adapta Eu anti-ADP antibody and Alexa Fluor 647 ADP tracer)) is added to quench the reaction. The plates are then incubated for 30 minutes at room temperature with shaking and then read on a BMG PheraStar Plus reader. For the assay methods described above, test compound percent inhibition, at various concentrations, is calculated relative to control (DMSO and EDTA) treated samples. Compound concentration versus percent inhibition curves are fitted to generate IC50 values. One skilled in the art will appreciate that the values generated either as percentage inhibition at a single concentration or IC50 values are subject to experimental variation. […] Additionally, compounds of the invention that inhibit VPS34 are described with the following IC50 ranges: […]
human VPS34, sequence (Q8NEB9 whole entry, the tested form may be a part): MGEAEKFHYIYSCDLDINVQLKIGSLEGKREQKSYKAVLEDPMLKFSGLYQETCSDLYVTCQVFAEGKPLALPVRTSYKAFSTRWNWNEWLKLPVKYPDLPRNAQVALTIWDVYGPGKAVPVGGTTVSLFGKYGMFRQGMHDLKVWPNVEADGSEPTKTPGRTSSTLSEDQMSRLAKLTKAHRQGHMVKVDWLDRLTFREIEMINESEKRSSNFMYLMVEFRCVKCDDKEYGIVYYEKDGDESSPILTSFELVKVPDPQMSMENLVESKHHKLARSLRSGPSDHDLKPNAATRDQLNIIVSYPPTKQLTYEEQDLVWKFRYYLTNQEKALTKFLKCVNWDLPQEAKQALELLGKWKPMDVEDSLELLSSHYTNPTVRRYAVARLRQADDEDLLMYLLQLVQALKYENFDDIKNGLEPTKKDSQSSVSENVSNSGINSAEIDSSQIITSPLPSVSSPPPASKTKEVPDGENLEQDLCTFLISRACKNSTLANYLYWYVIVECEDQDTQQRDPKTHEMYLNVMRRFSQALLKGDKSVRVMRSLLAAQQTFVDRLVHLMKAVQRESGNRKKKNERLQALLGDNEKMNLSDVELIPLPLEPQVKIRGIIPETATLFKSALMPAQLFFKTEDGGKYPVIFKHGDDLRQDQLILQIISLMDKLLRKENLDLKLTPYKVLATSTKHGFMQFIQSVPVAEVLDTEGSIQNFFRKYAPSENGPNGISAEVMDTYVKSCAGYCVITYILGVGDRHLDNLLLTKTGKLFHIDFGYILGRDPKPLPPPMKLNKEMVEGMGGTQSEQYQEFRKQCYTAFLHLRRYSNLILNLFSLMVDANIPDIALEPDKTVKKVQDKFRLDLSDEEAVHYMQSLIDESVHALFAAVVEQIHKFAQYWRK

In the case of `CCc1cc2c(-c3ccnc(NC(C)=O)c3)cncc2n1S(=O)(=O)c1ccccc1` [Compound I-24, N-{4-[2-ethyl-1-(phenylsulfonyl)-1H-pyrrolo[2,3-c]pyridin-4-yl]pyridin-2-yl}acetamide], the inhibition at 1.11 µM is more than 99% and the IC50 lay in the range of 10 to 50 nM.
For the molecule `CS(=O)(=O)n1ccc2c(-c3ccnc(N)c3)cncc21` [Compound I-32, 4-[1-(methylsulfonyl)-1H-pyrrolo[2,3-c]pyridin-4-yl]pyridin-2-amine], the inhibition at 1.11 µM was 30% and the 50% inhibitory concentration (IC50) was more than 100 nM.
`CC(=O)Nc1cc(-c2cncc3c2cnn3S(=O)(=O)C2CC2)ccn1` [Compound I-22, N-{4-[1-(cyclopropylsulfonyl)-1H-pyrazolo[3,4-c]pyridin-4-yl]pyridin-2-yl}acetamide]: the inhibition at 1.11 µM was more than 99% and the IC50 lay within 50 to 100 nM.
Turning to `c1cc(Nc2cc(-c3cncc4[nH]ccc34)ccn2)ncn1` [Compound I-50, N-[4-(1H-pyrrolo[2,3-c]pyridin-4-yl)pyridin-2-yl]pyrimidin-4-amine], the inhibition at 1.11 µM is 82% and the IC50 was in the range of 10 to 50 nM.
As for `CC(=O)Nc1cc(-c2cncc3c2ccn3S(=O)(=O)C2CC2)ccn1` [Compound I-37, N-{4-[1-(cyclopropylsulfonyl)-1H-pyrrolo[2,3-c]pyridin-4-yl]pyridin-2-yl}acetamide], the inhibition at 1.11 µM was more than 99% and the IC50 was less than 10 nM.
In the case of `COC(=O)Nc1cc(-c2cnc(C)c3c2ccn3S(=O)(=O)N(C)C)ccn1` [Compound I-6, methyl {4-[1-(dimethylsulfamoyl)-7-methyl-1H-pyrrolo[2,3-c]pyridin-4-yl]pyridin-2-yl}carbamate], the inhibition at 1.11 µM is more than 99% and the IC50 was in the range of 10 to 50 nM.
The matching figures for `CC(=O)Nc1cc(-c2cnc(C)c3c2ccn3S(=O)(=O)N2CCCC2)ccn1` [Compound I-23, N-{4-[7-methyl-1-(pyrrolidin-1-ylsulfonyl)-1H-pyrrolo[2,3-c]pyridin-4-yl]pyridin-2-yl}acetamide]: more than 99% and less than 10 nM.
On to `CCOC(=O)Nc1cc(-c2cnc(C)c3c2ccn3S(=O)(=O)c2ccccc2)ccn1` [Compound I-47, ethyl {4-[7-methyl-1-(phenylsulfonyl)-1H-pyrrolo[2,3-c]pyridin-4-yl]pyridin-2-yl}carbamate], for which the inhibition at 1.11 µM was more than 99% and the IC50 lay in the range of 10 to 50 nM.
Turning to `CC(=O)Nc1cc(-c2cnc(C)c3c2c(F)cn3S(=O)(=O)C2CC2)ccn1` [Compound I-14, N-{4-[1-(cyclopropylsulfonyl)-3-fluoro-7-methyl-1H-pyrrolo[2,3-c]pyridin-4-yl]pyridin-2-yl}acetamide], the inhibition at 1.11 µM was more than 99% and the concentration for half-maximal inhibition (IC50) fell in the range of 10 to 50 nM.
For `COC(=O)Nc1cc(-c2cnc(OC)c3c2ccn3S(C)(=O)=O)ccn1` [Compound I-1, methyl {4-[7-methoxy-1-(methylsulfonyl)-1H-pyrrolo[2,3-c]pyridin-4-yl]pyridin-2-yl}carbamate], the inhibition at 1.11 µM is more than 99% and the 50% inhibitory concentration (IC50) was less than 10 nM.
For the molecule `COC(=O)Nc1cc(-c2cnc(C)c3c2ccn3S(=O)(=O)CC(C)C)ccn1` [Compound I-15, methyl {4-[1-(isobutylsulfonyl)-7-methyl-1H-pyrrolo[2,3-c]pyridin-4-yl]pyridin-2-yl}carbamate], the inhibition at 1.11 µM was more than 99% and the IC50 is less than 10 nM.
On to `CC(=O)Nc1cc(-c2cnc(C)c3c2c(F)cn3S(C)(=O)=O)ccn1` [Compound I-46, N-{4-[3-fluoro-7-methyl-1-(methylsulfonyl)-1H-pyrrolo[2,3-c]pyridin-4-yl]pyridin-2-yl}acetamide], for which the inhibition at 1.11 µM is more than 99% and the IC50 lay within 10 to 50 nM.
In the same order, the values of `CC(=O)Nc1cc(-c2cnc(C)c3c2ccn3S(=O)(=O)c2ccccc2C)ccn1` [Compound I-34, N-(4-{7-methyl-1-[(2-methylphenyl)sulfonyl]-1H-pyrrolo[2,3-c]pyridin-4-yl}pyridin-2-yl)acetamide] are more than 99% and 10 to 50 nM.
As to `CC(=O)Nc1cc(-c2cnc(C)c3c2ccn3S(=O)(=O)N(C)C)ccn1` [Compound I-7, N-{4-[1-(dimethylsulfamoyl)-7-methyl-1H-pyrrolo[2,3-c]pyridin-4-yl]pyridin-2-yl}acetamide], the inhibition at 1.11 µM was more than 99% and the IC50 was less than 10 nM.
With `O=C(Cc1nnn[nH]1)Nc1cc(-c2cncc3c2ccn3S(=O)(=O)C2CC2)ccn1` [Compound I-27, N-{4-[1-(cyclopropylsulfonyl)-1H-pyrrolo[2,3-c]pyridin-4-yl]pyridin-2-yl}-2-(1H-tetrazol-5-yl)acetamide], the inhibition at 1.11 µM was more than 99% and the IC50 fell in the range of 10 to 50 nM.
On to `CC(=O)Nc1cc(-c2cnc(C)c3c2ccn3S(=O)(=O)c2ccc(F)cc2F)ccn1` [Compound I-11, N-(4-{1-[(2,4-difluorophenyl)sulfonyl]-7-methyl-1H-pyrrolo[2,3-c]pyridin-4-yl}pyridin-2-yl)acetamide], for which the inhibition at 1.11 µM is more than 99% and the half-inhibitory concentration (IC50) fell in the range of 10 to 50 nM.
With `CS(=O)(=O)n1ccc2c(-c3ccnc(Nc4ncco4)c3)cncc21` [Compound I-9, 4-[1-(methylsulfonyl)-1H-pyrrolo[2,3-c]pyridin-4-yl]-N-(1,3-oxazol-2-yl)pyridin-2-amine], the inhibition at 1.11 µM is more than 99% and the IC50 lay within 10 to 50 nM.
The matching figures for `CC(=O)Nc1cc(-c2cncc3c2ccn3S(=O)(=O)N(C)C)ccn1` [Compound I-33, N-{4-[1-(dimethylsulfamoyl)-1H-pyrrolo[2,3-c]pyridin-4-yl]pyridin-2-yl}acetamide]: more than 99% and less than 10 nM.
Regarding `Cc1ncc(-c2ccnc(NC(=O)CO)c2)c2ccn(S(=O)(=O)C3CC3)c12` [Compound I-48, N-{4-[1-(cyclopropylsulfonyl)-7-methyl-1H-pyrrolo[2,3-c]pyridin-4-yl]pyridin-2-yl}-2-hydroxyacetamide], the inhibition at 1.11 µM was more than 99% and the IC50 lay within 10 to 50 nM.
Turning to `CC(=O)Nc1cc(-c2cnc(CN)c3c2ccn3S(=O)(=O)C2CC2)ccn1` [Compound I-41, N-{4-[7-(aminomethyl)-1-(cyclopropylsulfonyl)-1H-pyrrolo[2,3-c]pyridin-4-yl]pyridin-2-yl}acetamide], the inhibition at 1.11 µM is more than 99% and the IC50 fell in the range of 10 to 50 nM.
As for `CC(=O)Nc1cc(-c2cnc(C)c3c2c(C)cn3S(C)(=O)=O)ccn1` [Compound I-5, N-{4-[3,7-dimethyl-1-(methylsulfonyl)-1H-pyrrolo[2,3-c]pyridin-4-yl]pyridin-2-yl}acetamide], the inhibition at 1.11 µM is more than 99% and the half-maximal inhibitory concentration (IC50) fell in the range of 50 to 100 nM.
As for `CC(=O)Nc1cc(-c2cnc(C)c3c2ccn3S(=O)(=O)c2ccccc2)ccn1` [Compound I-4, N-{4-[7-methyl-1-(phenylsulfonyl)-1H-pyrrolo[2,3-c]pyridin-4-yl]pyridin-2-yl}acetamide], the inhibition at 1.11 µM is more than 99% and the half-maximal inhibitory concentration (IC50) is less than 10 nM.
Take `COC(=O)Nc1cc(-c2cnc(C)c3c2ccn3S(=O)(=O)c2ccccc2)ccn1` [Compound I-2, methyl {4-[7-methyl-1-(phenylsulfonyl)-1H-pyrrolo[2,3-c]pyridin-4-yl]pyridin-2-yl}carbamate]: the inhibition at 1.11 µM was more than 99% and the IC50 was less than 10 nM.
In the case of `CCc1ncc(-c2ccnc(NC(C)=O)c2)c2ccn(S(C)(=O)=O)c12` [Compound I-3, N-{4-[7-ethyl-1-(methylsulfonyl)-1H-pyrrolo[2,3-c]pyridin-4-yl]pyridin-2-yl}acetamide], the inhibition at 1.11 µM was more than 99% and the IC50 was less than 10 nM.
Take `CC(=O)Nc1cc(-c2cnc(C)c3c2ccn3S(=O)(=O)C2CC2)ccn1` [Compound I-44, N-{4-[1-(cyclopropylsulfonyl)-7-methyl-1H-pyrrolo[2,3-c]pyridin-4-yl]pyridin-2-yl}acetamide]: the inhibition at 1.11 µM was more than 99% and the IC50 fell in the range of 10 to 50 nM.
The matching figures for `CC(=O)Nc1cc(-c2cnc(N(C)C)c3c2ccn3S(=O)(=O)C2CC2)ccn1` [Compound I-18, N-{4-[1-(cyclopropylsulfonyl)-7-(dimethylamino)-1H-pyrrolo[2,3-c]pyridin-4-yl]pyridin-2-yl}acetamide]: more than 99% and 10 to 50 nM.
Regarding `CCOC(=O)Nc1cc(-c2cncc3c2ccn3S(C)(=O)=O)ccn1` [Compound I-25, ethyl {4-[1-(methylsulfonyl)-1H-pyrrolo[2,3-c]pyridin-4-yl]pyridin-2-yl}carbamate], the inhibition at 1.11 µM was more than 99% and the IC50 is less than 10 nM.
For `CCS(=O)(=O)n1ccc2c(-c3ccnc(NC(C)=O)c3)cnc(C)c21` [Compound I-16, N-{4-[1-(ethylsulfonyl)-7-methyl-1H-pyrrolo[2,3-c]pyridin-4-yl]pyridin-2-yl}acetamide], the inhibition at 1.11 µM is more than 99% and the concentration for half-maximal inhibition (IC50) is less than 10 nM.
